Experimental data reported in patent publication US10596169B2, “Cancer treatment with combination of plinabulin and taxane” (BeyondSpring Inc., priority 2013, dated 2020).

Legend:
[1] = Example 2: animal weight and drug toxicity in MV522 xenograft mice; assay type: in vivo, athymic nu/nu mice
Protocol: (§1) Female nude mice (Hsd: Athymic Nude-Foxn1^nu) between 5 and 6 weeks of age weighing approximately 20 grams were obtained from Harlan, Inc. (Madison, Wis.). Animals were injected subcutaneously (SC) with approximately 1×10^7 MV522 cells harvested from tissue culture (1:1 matrigel:media). When tumors grew to approximately 100 cubic millimeters (mm^3) in size, animals were pair-matched by tumor size into treatment and control groups. Animals were ear-tagged and followed individually throughout the experiment.
(§2) Initial doses were administered on Day 1 following pair-matching. The experiment was carried out as both a tumor growth inhibition (TGI) and tumor growth delay (TGD) study. For TGI, the endpoint was when the average tumor volume of Group 1 reached 1.2 cm^3. For TGD, the endpoint was reached when each individual animal's tumor volume reached 1.0 cm^3. A 10 mg/ml stock vial of docetaxel was diluted in 0.9% saline on each day of dosing and administered intravenously (IV).
Individual and group mean weights ±SD and percent weight change were recorded twice weekly until study completion beginning Day 1. Group weights through Day 24 or 53 and weight nadir values are reported.

[2] = mouse, in vivo
Protocol: as §1, with “Wis.). MV522 is a conventional human NSC metastatic lung tumor cell line (U.S. Pat. No. 7,700,615 or 7,629,380).” for “Wis.).”, “culture.” for “culture (1:1 matrigel:media).”, “105” for “100”, “size (3 days following implantation),” for “size,”, “groups; each treatment group contained eight mice.” for “groups.”
Initial doses were administered on Day 1 following pair-matching. The experiment was carried out as a tumor growth inhibition (TGI) and tumor growth delay (TGD) study. Group 1 endpoint was when tumor volume reached 1.2 cm^3 (TGI) and the treated groups endpoint was when each individual animal's tumor volume reached 1.5 cm^3 (TGD). […] To serve as negative controls, NPI-2358 vehicle and docetaxel vehicle were injected IP on a 2×WKLY×3 schedule and IV on a Q2D×3 schedule, respectively. Docetaxel was administered by intravenous (IV) injection via tail vein at 15 mg/kg once every other day for three treatments (Q2D×3) or at 25 mg/kg on a Q7D×3 schedule (every 7 day for three treatment). Docetaxel and docetaxel vehicle were administered two hours prior to NPI-2358 vehicle and NPI-2358, respectively, in Groups 7-9 and 12-14. For Groups 10, 11, 15, and 16, NPI-2358 was given two hours prior to docetaxel.
Individual and group mean weights ±SD and percent weight change were recorded twice weekly until study completion beginning Day 1. Group weights on Day 42 and weight nadir values are reported.
Animals were observed twice weekly for general moribundity and daily for mortality.

[3] = system: MV522 human non-small cell lung tumor xenograph model; assay: Example 2: MV522 xenograft, NPI-2358 1, 4 or 24 h after docetaxel (TGI/TGD); assay type: in vivo, athymic nu/nu mice; conditions: for MDS day +/− SD: endpoint 1.0 cm^3
Protocol: In vivo evaluation of plinabulin in combination with docetaxel in the MV522 human non-small cell lung tumor xenograph model in athymic nu/nu mice: schedule of drug administration
The objective of the example was to evaluate the potential additive or synergistic effects of plinabulin (NPI-2358) in combination with docetaxel by administering NPI-2358 at various time points (1 h, 4 h, or 24 h) after docetaxel in the MV522 model. Significant endpoints for this experiment included mean tumor growth inhibition (TGI) or regression, tumor growth delay (TGD) in large tumor, weight loss, and mortality.
as §1, §2
Same as in Example 1. This arm of the study was ended on Day 80 or 53 at the sponsor's request. Long-term survivors (animals not reaching the tumor volume endpoint by the preset time period (LTS)) were assigned an IDS value of the last study day (Day 80) and included in these calculations.
For comparison of activity with standard agent(s), gross or net log10 cell-kill values were converted to an arbitrary activity rating below: […]

[4] = G2: docetaxel 15 mg/kg IV + NPI-2358 vehicle 1 h after
[5] = G3: docetaxel 15 mg/kg IV + NPI-2358 vehicle 4 h after
[6] = G4: docetaxel 15 mg/kg IV + NPI-2358 vehicle 24 h after
[7] = G11: docetaxel 25 mg/kg IV + NPI-2358 vehicle 1 h after
[8] = G12: docetaxel 25 mg/kg IV + NPI-2358 vehicle 4 h after
[9] = G13: docetaxel 25 mg/kg IV + NPI-2358 vehicle 24 h after

CC(=O)O[C@@]12CO[C@@H]1C[C@H](O)[C@@]1(C)C(=O)[C@H](O)C3=C(C)[C@@H](OC(=O)[C@H](O)[C@@H](NC(=O)OC(C)(C)C)c4ccccc4)C[C@@](O)([C@@H](OC(=O)c4ccccc4)[C@H]21)C3(C)C [Docetaxel, docetaxel]
Final weight - Day 24 % change [1, 4]: +13% | Final weight - Day 24 AVG +/− SD [1, 4]: 22 ± 1 g | Weight nadir % change [1, 4]: −14% | Weight nadir day [1, 4]: 10 | Final weight - Day 24 % change [1, 5]: +12% | Final weight - Day 24 AVG +/− SD [1, 5]: 23 ± 2 g | Weight nadir % change [1, 5]: −10% | Weight nadir day [1, 5]: 10 | Final weight - Day 24 % change [1, 6]: +17% | Final weight - Day 24 AVG +/− SD [1, 6]: 23 ± 2 g | Weight nadir % change [1, 6]: −10% | Weight nadir day [1, 6]: 10 | Final weight - Day 24 % change [1, 7]: −10% | Final weight - Day 24 AVG +/− SD [1, 7]: 18 ± 2 g | Weight nadir % change [1, 7]: −13% | Weight nadir day [1, 7]: 17 | Final weight - Day 24 % change [1, 8]: −11% | Final weight - Day 24 AVG +/− SD [1, 8]: 17 ± 2 g | Weight nadir % change [1, 8]: −14% | Weight nadir day [1, 8]: 10 | Final weight - Day 24 % change [1, 9]: −12% | Final weight - Day 24 AVG +/− SD [1, 9]: 17 ± 3 g | Weight nadir % change [1, 9]: −20% | Weight nadir day [1, 9]: 17 | Animal weight loss [2]: significant animal weight loss was observed | % TGI [3, 4]: 79% | Final tumor volume (Day 24) mean +/− SEM [3, 4]: 337 +/− 29 | Log10 cell kill [3, 4]: 0.6 | T-C (tumor growth delay) [3, 4]: 14 | MDS day +/− SD [3, 4]: 38 ± 3 days | % TGI [3, 5]: 81% | Final tumor volume (Day 24) mean +/− SEM [3, 5]: 313 +/− 23 | Log10 cell kill [3, 5]: 0.7 | T-C (tumor growth delay) [3, 5]: 18 | MDS day +/− SD [3, 5]: 42 ± 6 days | % TGI [3, 6]: 80% | Final tumor volume (Day 24) mean +/− SEM [3, 6]: 325 +/− 41 | Log10 cell kill [3, 6]: 0.6 | T-C (tumor growth delay) [3, 6]: 16 | MDS day +/− SD [3, 6]: 40 ± 7 days | # of animals with tumor regression (% TR (#)) [3, 7]: 7 | % TGI [3, 7]: 104% | % TR [3, 7]: 42% | Final tumor volume (Day 24) mean +/− SEM [3, 7]: 69 +/− 10 | Log10 cell kill [3, 7]: 1.6 | T-C (tumor growth delay) [3, 7]: 39 | MDS day +/− SD [3, 7]: 63 ± 10 days | # of animals with tumor regression (% TR (#)) [3, 8]: 7 | % TGI [3, 8]: 104% | % TR [3, 8]: 45% | Final tumor volume (Day 24) mean +/− SEM [3, 8]: 65 +/− 9 | Log10 cell kill [3, 8]: 1.3 | T-C (tumor growth delay) [3, 8]: 32 | MDS day +/− SD [3, 8]: 56 ± 4 days | # of animals with tumor regression (% TR (#)) [3, 9]: 7 | % TGI [3, 9]: 103% | % TR [3, 9]: 55% | Final tumor volume (Day 24) mean +/− SEM [3, 9]: 72 +/− 14 | Log10 cell kill [3, 9]: 1.4 | T-C (tumor growth delay) [3, 9]: 35 | MDS day +/− SD [3, 9]: 59 ± 10 days
